Source: US20220313651A1, “INHIBITORS OF ZIKA VIRUS INFECTION” (priority 2019, published 2022)

Experiments:
in vitro = conditions: African green monkey
Protocol: The cytotoxicity of the Z-medicaments in Vero E6 (ZIKV target cells) was evaluated using the Cell Counting Kit-8 (CCK8).
Briefly, compounds at 2-fold serial dilutions were added to cells (2.0×10^4/well) pre-seeded in 96-well plates. The cells were cultured at 37° C. for 3 days, and incubated with CCK8 solution, followed by measurement of absorbance at 450 nm (A450 value) using microplate reader.

[1] = tested on: ZIKV human strain PAN2016; assay: ZIKV PAN2016 infection of Ifnar1-/- mice: tissue viral titers, immunofluorescence; type: in vivo; conditions: 20 mg/kg i.p., 5 dpi
Description: (§1) FIG. 8A is a schematic diagram of experimental procedures. […] The treated mice were infected with ZIKV human strain R103451 (200 plaque forming unit (PFU)/mouse), followed by evaluation of survival rate (FIG. 8B) or weight changes (FIG. 8C) for 21 days. The data are expressed as mean±s.e.m. of mice in each group (n=6). In a separate experiment, ST087010 or gossypol-treated mice were infected with ZIKV human strain PAN2016 (200, PFU/mouse). Five days post-infection (dpi), viral titers were detected in tissues by plaque assay (FIG. 8D), and ZIKV or caspase-3 signals were measured in eye (FIG. 8E) and testis ([…]) tissues by immunofluorescence staining. The data are expressed as mean±s.e.m. of mice in each group (n=5), and significant differences among different groups are shown as *, **, and ***. The detection limit is 25 PFU/g. ZIKV and caspase-3 (in FIG. 8E-F) were stained with anti-ZIKV and anti-active caspase-3 antibodies, respectively. Nuclei were stained with DAPI (40,6-diamidino-2-phenylindole). Representative images of immunofluorescence staining are shown. Magnification, 63×, and scale bar, 10 μm.
ST087010 was evaluated for protection against ZIKV infection in ZIKV-susceptible Ifnar1^−/− mice. Briefly, 7-8-week-old male mice were used, and two separate experiments were performed. […] These mice were infected by i.p. injection with ZIKV (human strain R103451, 200 PFU/mouse), and observed daily for weight changes and survival until 21 days post-infection (dpi). […]
Plaque assay was used to detect viral titers in ZIKV-infected tissues. […] ZIKV titers in tissues were measured from ˜40 mg of samples, and thus the detection limit is about 25 PFU/g of tissues.
Immunofluorescence staining was carried out to detect ZIKV and caspase-3 signals in ZIKV-infected mouse tissues. […] The slides were analyzed using a confocal microscope (Zeiss LSM 880) and ZEN software, and fluorescent signals were quantified by ImageJ software. […]

[2] = tested on: ZIKV human strain R103451; assay: Protection of Ifnar1-/- mice from lethal ZIKV challenge (survival, weight); type: in vivo; conditions: 20 mg/kg i.p. 12 h before and 6, 24, 48 h after infection; ZIKV R103451 200 PFU/mouse; 21 days
Description: as §1
Adult male (3-4 or 7-8-week-old) and pregnant female (8-12-week-old, E12-14) Ifnar1^−/− mice were used in the study. […]
ST087010 was evaluated for protection against ZIKV infection in ZIKV-susceptible Ifnar1^−/− mice. […]

ZIKV EDIII protein = target: T1, ZIKV EDIII protein (Zika virus, UniProt Q32ZE1, D679E/I627V/V603I/V629A); assay: SPR binding to ZIKV EDIII protein; conditions: 1:1 binding model, read-out: KD (binding affinity) to ZIKV EDIII protein
T1 construct: human Fc (C)
T1 sequence (Q32ZE1 584-695 V603I/I627V/V629A/D679E): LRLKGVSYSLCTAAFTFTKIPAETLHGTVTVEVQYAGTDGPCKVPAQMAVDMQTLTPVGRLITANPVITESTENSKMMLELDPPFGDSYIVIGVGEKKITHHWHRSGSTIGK
Protocol: Briefly, ZIKV EDIII protein or NS2B-NS3 protein were immobilized on a sensor chip (CM5) using Amine Coupling Kit. Serially diluted ST087010 was added as analytes, and HBS-EP with 10% DMSO (10 mM HEPES, 150 mM NaCl, 3 mM EDTA, 0.05% Tween-20, 10% DMSO, pH 7.4) was used as running buffer. Biacore BK evaluation software (version 1.1) was applied to analyze the data, and the curve was fitted with a 1:1 binding model.

SMILES	CC50 at 3 days (in vitro) [µM]	Viral titers in tissues (plaque assay) ([1]; ZIKV PAN2016 200 PFU/mouse, heart, testis, eye, kidney, brain)	ZIKV+ signals in eye and testis tissues ([1]; ZIKV PAN2016, immunofluorescence)	Caspase-3 staining in eye and testis tissues ([1]; ZIKV PAN2016, immunofluorescence, vs DMSO)	Survival (mice protected from death) [2] [%]	Weight changes [2]	Kd (ZIKV EDIII protein) [µM]
Cc1cc2c(C(C)C)c(O)c(O)c(C=O)c2c(O)c1-c1c(C)cc2c(C(C)C)c(O)c(O)c(C=O)c2c1O [Gossypol, gossypol]	14.49 ± 0.07	–	–	–	–	–	–
Cc1cc2c(C(C)C)c(O)c(O)c(/C=N/n3c(=O)[nH][nH]c3=O)c2c(O)c1-c1c(C)cc2c(C(C)C)c(O)c(O)c(/C=N/n3c(=O)[nH][nH]c3=O)c2c1O [ST087010]	–	significantly reduced viral titers	undetectable	undetectable or diminished staining	50	slight weight loss during 6-12 dpi	4.95
